What is called EC50 is the concentration that produces a half-maximal response.

Here are results for seven compounds from ChEMBL document CHEMBL1151843, “Chromones from the endophytic fungus Pestalotiopsis sp. isolated from the chinese mangrove plant Rhizophora mucronata” (J Nat Prod, 2009).

Converted amounts (≈) assume the structure as drawn.

The subject of one experiment is L5178Y. Kind of experiment: Cytotoxicity against mouse L5178Y cells after 72 hrs by MTT assay. In kind it is functional, cell-based. The note with it: Mus musculus, L5178Y, 72 h; read-out: EC50. Background: Tetrazolium dyes change colour on reduction, which living cells bring about.
On to `CCCCCc1cc(=O)c2c(CC(=O)OC)cc(O)cc2o1` [PESTALOTIOPSONE F], for which the 50% effective concentration (EC50) turned out to be 8.93 µg/mL (≈ 29.3 µM).

The experiment is the same for the next values; noted with them: l5178y.
In the case of `CCCCCCCc1cc(=O)c2c(CC(=O)OCC)cc(O)cc2o1` [PESTALOTIOPSONE B], the EC50 entry is reported as “Not Active”. Same read-out and setting: with `Cc1cc(O)cc2oc(C[C@H](C)O)cc(=O)c12` the entry was “Not Active”. On the same count and under the same terms, the result for `COC(=O)Cc1cc(O)cc2oc(CCCCCC(C)O)cc(=O)c12` (configuration not stated) [PESTALOTIOPSONE D] reads “Not Active”. Same read-out and setting: the result for `CCCCCCCc1cc(=O)c2c(CC(=O)O)cc(O)cc2o1` [PESTALOTIOPSONE C] reads “Not Active”. On to `CCCCCCCc1cc(=O)c2c(CC(=O)OC)cc(O)cc2o1` [PESTALOTIOPSONE A], for which the EC50 entry was “Not Active”. The same measure, in the same setting: the result for `CCOC(=O)Cc1cc(O)cc2oc(CCCCCC(C)O)cc(=O)c12` (configuration not stated) [PESTALOTIOPSONE E] reads “Not Active”.
